# Like-named read-outs stand apart in the source and are kept apart here.
# Assays:
# Format in all cases: cell-based
# [1] = tested on: IFNγ induced CXCL10 secretion in EpiAirway tissue cultures; test: Assay 15: IFNγ induced CXCL10 in human 3D airway cultures; details: 192 h, Day 8, average from 3 or 4 donors, read-out: % inhibition of IFNγ induced CXCL10 secretion (±STDV)
# Method: EpiAirway tissue cultures were obtained from Mattek (AIR-100). Cultures were derived from asthmatic donors. In a cell culture insert, human derived tracheal/bronchial epithelial cells were grown and differentiated on a porous membrane support, allowing an air-liquid interface with warmed culture medium below the cells and a gaseous test atmosphere above. Tissues were cultured in maintenance media (Mattek, AIR-100-MM) in a 37° C., 5% CO2 humidified incubator. Four donors were tested. On Day 0, tissue cultures were treated with test compounds at 10 μM, 1 μM and/or 0.1 μM. Compounds were diluted in dimethyl sulfoxide (DMSO, Sigma) to a final concentration of 0.1%. DMSO at 0.1% was used as a vehicle control. Test compounds were incubated with cultures for 1 hour at 37° C., 5% CO2, followed by the addition of pre-warmed media containing IFNγ (R&D Systems) or IL-27 (R&D Systems) at a final concentration at 100 ng/ml. Tissue cultures were maintained for 8 days. Media was replaced every 2 days with fresh media containing compounds and IFNγ or IL-27. On Day 8, tissue cultures and supernatants were collected for analysis. […] Data is expressed as % Inhibition +/−standard deviation (±STDV). Percent inhibition was determined by compound inhibitory potency against IFNγ or IL-27 induced CXCL10 or CXCL9 secretion compared to vehicle treated cells. […]
# [2] = tested on: IFNγ induced CXCL9 secretion in EpiAirway tissue cultures; test: Assay 15: IFNγ induced CXCL9 in human 3D airway cultures; details: 192 h, Day 8, average from 3 or 4 donors, read-out: % inhibition of IFNγ induced CXCL9 secretion (±STDV)
# Method: (§1) EpiAirway tissue cultures were obtained from Mattek (AIR-100). Cultures were derived from asthmatic donors. In a cell culture insert, human derived tracheal/bronchial epithelial cells were grown and differentiated on a porous membrane support, allowing an air-liquid interface with warmed culture medium below the cells and a gaseous test atmosphere above. Tissues were cultured in maintenance media (Mattek, AIR-100-MM) in a 37° C., 5% CO2 humidified incubator. Four donors were tested. On Day 0, tissue cultures were treated with test compounds at 10 μM, 1 μM and/or 0.1 μM. Compounds were diluted in dimethyl sulfoxide (DMSO, Sigma) to a final concentration of 0.1%. DMSO at 0.1% was used as a vehicle control. Test compounds were incubated with cultures for 1 hour at 37° C., 5% CO2, followed by the addition of pre-warmed media containing IFNγ (R&D Systems) or IL-27 (R&D Systems) at a final concentration at 100 ng/ml. Tissue cultures were maintained for 8 days. Media was replaced every 2 days with fresh media containing compounds and IFNγ or IL-27. On Day 8, tissue cultures and supernatants were collected for analysis. Supernatant samples were assayed for CXCL10 (IP-10) and CXCL9 (MIG) using luminex analysis (EMD Millipore). Data is expressed as % Inhibition +/−standard deviation (±STDV). Percent inhibition was determined by compound inhibitory potency against IFNγ or IL-27 induced CXCL10 or CXCL9 secretion compared to vehicle treated cells. Data is the average from 3 or 4 donors. Compound 1 was able to inhibit IFNγ induced CXCL10 secretion by 99%±2.0 (at 10 μM), 71%±19 (at […]) and 17%±12 (at 0.1 μM) when compared to vehicle control. Compound 1 was able to inhibit IFNγ induced CXCL9 secretion by 100%±0.3 (at 10 μM), 99%±0.9 (at 1 μM) and 74%±17 (at 0.1 μM) when compared to vehicle. […] Compound 1 was able to inhibit IL-27 induced CXCL9 secretion by 100%±0 (at 10 μM), 95%±3.7 (at 1 μM) and 75%±3.5 (at 0.1 μM) when compared to vehicle control.
# [3] = tested on: IL-27 induced CXCL9 secretion in EpiAirway tissue cultures; test: Assay 15: IL-27 induced CXCL9 in human 3D airway cultures; details: 192 h, Day 8, average from 3 or 4 donors, read-out: % inhibition of IL-27 induced CXCL9 secretion (±STDV)
# Method: as §1
# [4] = tested on: IL-5 mediated survival of human eosinophils; test: Assay 16: IL-5 mediated eosinophil survival assay; details: 72 h, read-out: pIC50, IL-5 mediated eosinophil survival (cell viability) (converted)
# Method: The potency of the test compound for IL-5 mediated eosinophil survival was measured in human eosinophils isolated from human whole blood (AllCells). Because IL-5 signals through JAK, this assay provides a measure of JAK cellular potency. Human eosinophils were isolated from fresh human whole blood (AllCells) of healthy donors. Blood was mixed with 4.5% Dextran (Sigma-Aldrich) in a 0.9% sodium chloride solution (Sigma-Aldrich). Red blood cells were left to sediment for 35 minutes. The leukocyte rich upper layer was removed and layered over Ficoll-Paque (GE Healthcare) and centrifuged at 600 g for 30 minutes. The plasma and mononuclear cell layers were removed before the granulocyte layer was lysed with water to remove any contaminating red blood cells. […] Purity was analyzed using a LSRII flow cytometer (BD Biosciences). […]
# After cytokine stimulation, cells were centrifuged at 300 g for 5 min and washed twice with cold DPBS (Life Technologies). To access viability and apoptosis, cells were incubated with Propidium Iodide (Thermo Fisher Scientific) and APC Annexin V (BD Biosciences) and analyzed using a LSRII flow cytometer (BD Biosciences). IC50 values were determined from analysis of the viability curves of percent cell viability vs compound concentration. Data are expressed as pIC50 (negative decadic logarithm IC50) values.
smiles,measurement,setting,value
"CCc1cc(O)c(F)cc1-c1ccc2c(-c3nc4c([nH]3)CCN(C3CCN(C)CC3)C4)n[nH]c2c1 [Compound 1, 5-ethyl-2-fluoro-4-(3-(5-(1-methylpiperidin-4-yl)-4,5,6,7-tetrahydro-1H-imidazo[4,5-c]pyridin-2-yl)-1H-indazol-6-yl)phenol]",inhibition at 0.1 µM,[1]; at 0.1 μM,17%
same,inhibition at 10 µM,[1]; at 10 μM,99%
same,inhibition at 0.1 µM,[2]; at 0.1 μM,74%
same,inhibition at 1 µM,[2]; at 1 μM,99%
same,inhibition at 10 µM,[2]; at 10 μM,100%
same,inhibition at 0.1 µM,[3]; at 0.1 μM,75%
same,inhibition at 1 µM,[3]; at 1 μM,95%
same,inhibition at 10 µM,[3]; at 10 μM,100%
same,IC50,"[4]; in the presence of 10 pg/ml IL-5, 72 hours",12.6 nM
same,IC50,"[4]; in the presence of 1 ng/ml IL-5, 72 hours",316 nM

# Source: patent US10251874B2, “Crystalline forms of a JAK inhibitor compound” (THERAVANCE BIOPHARMA R&D IP, LLC, priority 2017, dated 2019)
